From ChEMBL document CHEMBL1147395, “Three New Toxic Pinolidoxins from Ascochyta pinodes” (J Nat Prod, 1993)
Activity calls are given as the source filed them. No cut-off for these calls is given here.

Columns and labels:
Pisum sativum = experiment: Phytotoxicity against pea leaves assessed as necrotic lesion at 15 ug/15 ul after 48 hrs by leaf puncture assay; assay type: functional, organism-based; settings: Lathyrus oleraceus
Fabaceae = experiment: Phytotoxicity against beans leaves assessed as necrotic lesion at 15 ug/15 ul after 48 hrs by leaf puncture assay; assay type: functional, organism-based
Artemia salina [1] = experiment: Toxicity in Artemia salina at 50 ug/ml; assay type: organism-based; settings: in vivo
Artemia salina [2] = experiment: Toxicity in Artemia salina at 5 ug/ml; assay type: organism-based; settings: in vivo
Geotrichum candidum = experiment: Antifungal activity against Geotrichum candidum up to 120 ug/ml; assay type: functional, organism-based

| SMILES | Activity (Pisum sativum) | Activity (Fabaceae) | Activity (Artemia salina [1]) | Activity (Artemia salina [2]) | Activity (Geotrichum candidum) |
| --- | --- | --- | --- | --- | --- |
| C/C=C/C=C/C(=O)O[C@H]1CC/C=C/[C@@H](O)[C@H](O)[C@@H](CCC)OC1=O | Toxic | Toxic | Toxic | Non-toxic | inactive |
| C/C=C/C=C/C(=O)O[C@H]1CC/C=C/[C@H](O)[C@H](O)[C@@H](CCC)OC1=O [PINOLIDOXIN] | – | – | – | Non-toxic | inactive |
| C/C=C/C=C/C(=O)O[C@H]1CCCC[C@H](O)[C@H](O)[C@@H](CCC)OC1=O | Toxic | Toxic | – | Non-toxic | inactive |
| C/C=C/C=C/C(=O)O[C@H]1CCC2OC2[C@H](O)[C@H](O)[C@@H](CCC)OC1=O (some centres undefined) | – | – | Toxic | Non-toxic | inactive |
